From ChEMBL document CHEMBL5579852, “Promising anti-proliferative indolic benzenesulfonamides alter mechanisms with sulfonamide nitrogen substituents” (Eur J Med Chem, 2024)
Blank lines part the entries; values can stand above or below the compound they belong to. Active and inactive are the calls of the source. No cut-off for these calls is given here.

Legend:
HeLa [1] = assay: Antiproliferative activity against human HeLa cells assessed as reduction in cell viability incubated for 72 hrs by MTT assay; assay type: functional, cell-based
MCF7 = assay: Antiproliferative activity against human MCF7 cells assessed as reduction in cell viability incubated for 72 hrs by CelltiterGlo luminescent assay; assay type: functional, cell-based; settings: MCF7, 72 h
BT-474 = assay: Antiproliferative activity against human BT-474 cells assessed as reduction in cell viability incubated for 72 hrs by CelltiterGlo luminescent assay; settings: BT-474, 72 h
MES-SA = assay: Antiproliferative activity against human MES-SA cells assessed as reduction in cell viability incubated for 72 hrs by CelltiterGlo luminescent assay
HT-1080 = assay: Antiproliferative activity against human HT-1080 cells assessed as reduction in cell viability incubated for 72 hrs by CelltiterGlo luminescent assay; settings: HT-1080, 72 h
[2] = Antiproliferative activity against human Melmet 5 cells assessed as reduction in cell viability incubated for 72 hrs by CelltiterGlo luminescent assay; settings: Melmet 5, 72 h
A-375 = assay: Antiproliferative activity against human A-375 cells assessed as reduction in cell viability incubated for 72 hrs by CelltiterGlo luminescent assay; settings: A-375, 72 h
[3] = Antiproliferative activity against human WM1366 cells assessed as reduction in cell viability incubated for 72 hrs by CelltiterGlo luminescent assay; settings: WM1366, 72 h
CAKI-1 = assay: Antiproliferative activity against human CAKI-1 cells assessed as reduction in cell viability incubated for 72 hrs by CelltiterGlo luminescent assay; settings: CAKI-1, 72 h
[4] = Antiproliferative activity against human Hermes 3C cells assessed as reduction in cell viability incubated for 72 hrs by CelltiterGlo luminescent assay; assay type: toxicity, cell-based
[5] = Antiproliferative activity against human HEK293 cells assessed as reduction in cell viability incubated for 72 hrs by CelltiterGlo luminescent assay; assay type: toxicity, cell-based
[6] = Antiproliferative activity against human RPE-1 cells assessed as reduction in cell viability incubated for 72 hrs by CelltiterGlo luminescent assay; assay type: toxicity, cell-based; settings: RPE-1 cells (TERT-RPE1)
HeLa [7] = assay: Antiproliferative activity against human HeLa cells assessed as reduction in cell viability incubated for 72 hrs by CelltiterGlo luminescent assay; assay type: functional, cell-based
HeLa [8] = assay: Antiproliferative activity against human HeLa cells assessed as inhibition of cell growth incubated for 72 hrs in absence of verapamil by MTT assay; assay type: functional, cell-based
HeLa [9] = assay: Antiproliferative activity against human HeLa cells assessed as inhibition of cell growth incubated for 72 hrs in presence of verapamil by MTT assay; assay type: functional, cell-based
MDA-MB-468 = assay: cells; settings: Homo sapiens, MDA-MB-468, 72 h
Description: Antiproliferative activity against human MDA-MB-468 cells assessed as reduction in cell viability incubated for 72 hrs by CelltiterGlo luminescent assay

cells = settings: Homo sapiens, MDA-MB-468, 72 h
Tubulin (Homo sapiens) = Tubulin (Homo sapiens) (UniProt P68371+Q9H4B7+P0DPH7+P68366+Q13509+Q71U36+P04350+Q3ZCM7+P07437+P68363+Q9BQE3+Q6PEY2+Q13885+Q9BVA1+Q9BUF5); assay: Inhibition of tubulin polymerization in human MES-SA cells assessed as appearance of spherical shaped cells at 10 nM incubated for 24 hrs by DAPI staining based confocal microscopy analysis; assay type: cell-based

- IC50 (HeLa [1]): > 1000 nM
Compound: COc1cc(S(=O)(=O)N(CCCCC(=O)O)c2ccc3c(ccn3C)c2)cc(OC)c1OC

- IC50 (HeLa [1]): 22.7 nM
- IC50 (MCF7): 15.3 nM
- IC50 (BT-474): 66.4 nM
- IC50 (HT-1080): 14 nM
- IC50 (A-375): 49.8 nM
- IC50 (HeLa [7]): 18.4 nM
- IC50 (HeLa [8]): 57.4 nM
- IC50 (HeLa [9]): 52.4 nM
- IC50 (MDA-MB-468): 15.2 nM
- IC50 (cells): 14.7 nM
Compound: COc1cc(S(=O)(=O)N(CC#N)c2ccc3c(c2)c(C=O)cn3C)cc(OC)c1OC
- IC50 (MES-SA): 32.5 nM
- IC50 [2]: 12.5 nM
- IC50 [3]: 31.4 nM
- IC50 (CAKI-1): 66.2 nM
- IC50 at 72 h [4]: 81.3 nM
- IC50 at 72 h [5]: 70.9 nM
- IC50 at 72 h [6]: 41.3 nM

Compound: CC(=O)O[C@H]1C(=O)[C@@]2(C)[C@H]([C@H](OC(=O)c3ccccc3)[C@]3(O)C[C@H](OC(=O)[C@H](O)[C@@H](NC(=O)c4ccccc4)c4ccccc4)C(C)=C1C3(C)C)[C@]1(OC(C)=O)CO[C@@H]1C[C@@H]2O [PACLITAXEL]
- IC50 at 72 h [4]: 1 nM
- IC50 at 72 h [5]: 26.8 nM

- IC50 (HeLa [1]): > 1000 nM
Compound: CCOC(=O)CN(c1ccc2c(ccn2C)c1)S(=O)(=O)c1cc(OC)c(OC)c(OC)c1

- IC50 (HeLa [1]): > 1000 nM
Compound: CCOC(=O)CCCN(c1ccc2c(ccn2C)c1)S(=O)(=O)c1cc(OC)c(OC)c(OC)c1

- IC50 (HeLa [1]): 102 nM
- IC50 (MCF7): 108 nM
- IC50 (BT-474): 126 nM
- IC50 (HT-1080): 69.2 nM
- IC50 (A-375): 245 nM
- IC50 (HeLa [7]): 93 nM
- IC50 (HeLa [8]): 102 nM
- IC50 (HeLa [9]): 55.4 nM
- IC50 (MDA-MB-468): 101 nM
- IC50 (cells): 284 nM
Compound: COc1cc(S(=O)(=O)Nc2ccc3c(c2)c(C(N)=O)cn3C)cc(OC)c1OC
- IC50 (MES-SA): 99.9 nM
- IC50 [2]: 29.5 nM
- IC50 [3]: 278 nM
- IC50 (CAKI-1): 310 nM
- IC50 at 72 h [4]: 466 nM
- IC50 at 72 h [5]: 492 nM
- IC50 at 72 h [6]: 173 nM

- IC50 (HeLa [1]): > 1000 nM
Compound: COc1cc(S(=O)(=O)N(CCCBr)c2ccc3c(ccn3C)c2)cc(OC)c1OC

- IC50 (HeLa [1]): 79.8 nM
Compound: C#CCN(c1ccc2c(ccn2C)c1)S(=O)(=O)c1cc(OC)c(OC)c(OC)c1

- IC50 (HeLa [1]): > 1000 nM
Compound: COc1cc(S(=O)(=O)N(C)c2ccc3c(c2)c(C(=O)O)cn3C)cc(OC)c1OC

- IC50 (HeLa [1]): 16.5 nM
- IC50 (MCF7): 9.3 nM
- IC50 (BT-474): 10.6 nM
- IC50 (HT-1080): 8.1 nM
- IC50 (A-375): 8.7 nM
- IC50 (HeLa [7]): 5.3 nM
- IC50 (HeLa [8]): 18.4 nM
- IC50 (HeLa [9]): 14.6 nM
- IC50 (MDA-MB-468): 17.2 nM
- IC50 (cells): 32.9 nM
Compound: COc1cc(S(=O)(=O)N(C)c2ccc3c(c2)c(C=O)cn3C)cc(OC)c1OC
- IC50 (MES-SA): 17.9 nM
- IC50 [2]: 3.9 nM
- IC50 [3]: 11.6 nM
- IC50 (CAKI-1): 12.9 nM
- IC50 at 72 h [4]: 52.8 nM
- IC50 at 72 h [5]: 50.2 nM
- IC50 at 72 h [6]: 12 nM

- IC50 (HeLa [1]): > 1000 nM
Compound: COc1cc(S(=O)(=O)N(CCCC(=O)O)c2ccc3c(ccn3C)c2)cc(OC)c1OC

- IC50 (HeLa [1]): > 1000 nM
Compound: COc1cc(S(=O)(=O)N(CCN2CCOCC2)c2ccc3c(ccn3C)c2)cc(OC)c1OC

- IC50 (HeLa [1]): > 1000 nM
Compound: COc1cc(S(=O)(=O)N(Cc2cccc(N)c2)c2ccc3c(ccn3C)c2)cc(OC)c1OC

- IC50 (MCF7): 4.2 nM
- IC50 (BT-474): 2.9 nM
- IC50 (HT-1080): 0.3 nM
- IC50 (A-375): 3.5 nM
- IC50 (HeLa [7]): 1 nM
- inhibition (Tubulin (Homo sapiens)): Active
- IC50 (MDA-MB-468): 0.4 nM
Compound: CC[C@]1(O)C[C@H]2CN(CCc3c([nH]c4ccccc34)[C@@](C(=O)OC)(c3cc4c(cc3OC)N(C=O)[C@H]3[C@@](O)(C(=O)OC)[C@H](OC(C)=O)[C@]5(CC)C=CCN6CC[C@]43[C@@H]65)C2)C1 [VINCRISTINE]
- IC50 (MES-SA): 4.9 nM
- IC50 [2]: 0.2 nM
- IC50 [3]: 4.5 nM
- IC50 (CAKI-1): 5.7 nM
- IC50 at 72 h [4]: 2.8 nM
- IC50 at 72 h [5]: 25.8 nM
- IC50 at 72 h [6]: 7.6 nM

- IC50 (HeLa [1]): 974 nM
Compound: COc1cc(S(=O)(=O)N(CC#N)c2ccc3c(c2)C=CC3CC#N)cc(OC)c1OC (stereo not given)

Compound: COc1cc2c(c(OC)c1OC)-c1ccc(OC)c(=O)cc1[C@@H](NC(C)=O)CC2 [COLCHICINE]
- IC50 (HeLa [8]): 16.7 nM
- IC50 (HeLa [9]): 9.3 nM

- IC50 (HeLa [1]): > 1000 nM
Compound: COc1cc(S(=O)(=O)N(CCCN2CCOCC2)c2ccc3c(ccn3C)c2)cc(OC)c1OC
